From US20180028480A1, “METHODS OF REDUCING OR PREVENTING OXIDATIVE MODIFICATION OF MEMBRANE POLYUNSATURATED FATTY ACIDS” (Amarin Pharmaceuticals Ireland Limited, priority 2015, published 2018)

Legend:
human sdLDL = experiment: Copper-induced sdLDL oxidation, TBARS (Example 6); assay type: biochemical; conditions: 1.0 μM to 10.0 μM; 2 hr copper oxidation
Description: An experiment to study the antioxidant effect of EPA in small dense LDL (“sdLDL”) was performed. EPA was purchased from Sigma-Aldrich (Saint Louis, Mo.) and solubilized in ethanol to 1 mM under nitrogen atmosphere. Vitamin E (α-tocopherol) was purchased from Sigma-Aldrich and prepared in ethanol at 1.0 mM (c=3.06×10^4 M^−1 cm^−1 at 294 nm) just prior to experimental use. All test compounds were further diluted in ethanol or aqueous buffer as needed.
Venous blood was collected from healthy volunteers into vacutainer tubes containing sodium EDTA. Plasma was separated by centrifugation at 3000 g for 25 min at 4° C. and adjusted to a density of 1.020 g/mL with KBr. […]
LDL and sdLDL subfractions (0.6 mL each) were incubated with either 10 μL vehicle (ethanol) or 10 μL drug stock solution for 30 min to 1 hr at 37° C. […] Sample TBARS concentrations were determined spectrophotometrically by measuring sample absorbances against a standard curve derived from the hydrolysis of 1,1,3,3-tetramethoxypropane.
Data are presented as mean±S.D. for (N) separate samples or treatment groups. Differences between groups were analyzed using the two-tailed, Student's t-test (for comparisons between only two groups) or ANOVA followed by Dunnett or Student-Newman-Keuls multiple comparisons post-hoc analysis (for comparisons between three or more groups). […]

[1] = Small angle x-ray diffraction of glucose-treated model membranes: structure and cholesterol domains (Example 4); conditions: for effect on membrane structure compared to control: 0 hours, 1:30 drug-to-phospholipid mole ratio, glucose 200 mg/dL
Description: Multilamellar vesicles (MLVs) were prepared as binary mixtures of DLPC (1.0 or 2.5 mg total phospholipid per sample) and cholesterol at a fixed cholesterol-to-phospholipid (C/P) mole ratio of 0.6:1. Component lipids (in chloroform) were transferred to 13×100 mm borosilicate culture tubes and combined with vehicle (ethanol) or an equal volume of fatty acid, vitamin E, or ATM stock solutions, each adjusted to achieve desired treatment concentrations. Samples were shell-dried under nitrogen gas and placed under vacuum for 1 h to remove residual solvent. After desiccation, each sample was resuspended in 1.0 mL glucose-containing saline to yield final phospholipid concentrations of 1.0 or 2.5 mg/mL (for lipid peroxidation or x-ray diffraction analysis, respectively). Lipid suspensions were then vortexed for 3 min at ambient temperature to form MLVs.
The membrane structural effects of glucose and the various compounds examined in this study were measured at 0, 72, and 96 hour intervals. Membrane lipid vesicles were oriented for x-ray diffraction analysis as described by others (e.g., Herbette et al., Biophys. J., vol. 20(2), pages 245-272 (1977)). Briefly, a 100 μL aliquot (containing 250 μg MLV) was aspirated from each sample and transferred to a Lucite® sedimentation cell fitted with an aluminum foil substrate upon which a given sample could be collected by centrifugation. Samples were then loaded into a Sorvall AH-629 swinging bucket rotor (DuPont Corp., Wilmington, Del.) and centrifuged at 35,000 g, 5° C., for 90 min.
After centrifugal orientation, sample supernatants were aspirated and aluminum foil substrates, each supporting a single membrane pellet, were removed from the sedimentation cells. […]
The d-space for any given membrane multibilayer is a measurement of the unit cell periodicity of the membrane lipid bilayer (e.g., the distance from the center of one lipid bilayer to the next including surface hydration), and is calculated from Bragg's Law, hλ=2 d sin θ, where h is the diffraction order, λ is the wavelength of the x-ray radiation (1.54 Å), d is the membrane lipid bilayer unit cell periodicity, and θ is the Bragg angle equal to one-half the angle between the incident beam and scattered beam.
The presence of cholesterol domains in a given membrane sample results in the production of distinct Bragg (diffraction) peaks having singular periodicity values of 34 and 17 Å (typically referred to as first- and second-order cholesterol domain peaks). Under the specific temperature and relative humidity conditions established for these experiments, the second-order, 17 Å cholesterol domain peak was well-delineated from other, neighboring cholesterol and phospholipid diffraction peaks and was thus used to quantitate relative cholesterol domain peak intensity. […]

| SMILES | sdLDL oxidation (human sdLDL) | effect on membrane structure compared to control [1] | cholesterol domain peaks ([1]; 96 hours of oxidative conditions) | effect on cholesterol domain formation (cholesterol domain peak intensity) compared to control ([1]; any experimental time point (FIG. 5)) |
| --- | --- | --- | --- | --- |
| Cc1c(C)c2c(c(C)c1O)CC[C@@](C)(CCC[C@H](C)CCC[C@H](C)CCCC(C)C)O2 [vitamin E, α-tocopherol, reference compound] | did not inhibit sdLDL oxidation except at the highest concentration | no appreciable effect on membrane structure | disproportionately greater | no significant effect on cholesterol domain formation |
| CC/C=C\C/C=C\C/C=C\C/C=C\C/C=C\CCCC(=O)O [EPA, cis-5,8,11,14,17-Eicosapentaenoic acid] | inhibited sdLDL oxidation over a broad range of concentrations | no appreciable effect on membrane structure | – | – |
